Experimental data taken from BigSolDB 2.1.

C=CC(=O)N1CCC[C@@H](n2nc(-c3ccc(Oc4ccccc4)cc3)c3c(N)ncnc32)C1
solubility (mole fraction)
Conditions | 278.15 K | 283.15 K | 288.15 K | 293.15 K | 298.15 K | 303.15 K | 308.15 K | 313.15 K | 318.15 K | 323.15 K
in 2-butanone | 0.00549 | 0.00628 | 0.00726 | 0.00855 | 0.00988 | 0.0114 | 0.0132 | 0.0155 | 0.0181 | 0.0211
in MTBE | 0.000225 | 0.000244 | 0.000277 | 0.000305 | 0.000331 | 0.00037 | 0.000404 | 0.000454 | 0.000497 | 0.00056
in acetone | 0.00362 | 0.00417 | 0.00487 | 0.00573 | 0.00673 | 0.00794 | 0.00921 | 0.0108 | 0.0125 | 0.0144
in acetonitrile | 0.000672 | 0.000819 | 0.000962 | 0.00122 | 0.00143 | 0.00174 | 0.0021 | 0.00256 | 0.00314 | 0.00367
in ethyl acetate | 0.00312 | 0.00357 | 0.00403 | 0.00475 | 0.00548 | 0.00618 | 0.00722 | 0.0083 | 0.00952 | 0.0107
in isopropanol | 0.000409 | 0.000547 | 0.000734 | 0.000947 | 0.00123 | 0.00165 | 0.00217 | 0.00278 | 0.00363 | 0.00455
in n-butanol | 0.00127 | 0.00163 | 0.00206 | 0.00261 | 0.00331 | 0.00423 | 0.0054 | 0.00694 | 0.00894 | 0.0115
